Laboratory results: patent US20240270699A1, “COMPOUNDS HAVING N-ARYLPYRIMIDIN-2-AMINE DERIVATIVES AS THERAPEUTIC AGENTS” (Lomond Therapeutics, Inc., priority 2021, published 2024)

How the values were obtained:
Jurkat cells = test: IL-2 release Jurkat assay (anti-CD3/anti-CD28 stimulation, IL-2 ELISA); format: cell-based, human; details: activation with 400 ng/mL aCD3 + 400 ng/mL aCD28, 24 hours
recombinant HPK1 protein = target: T1, recombinant HPK1 protein (Homo sapiens, UniProt Q92918); test: Primary assay of HPK1 enzymatic activity inhibition (ADP-Glo luminescence); format: biochemical; details: recombinant HPK1, MBP substrate, 1 hour at room temperature
T1 construct: purchased Promega V6398
T1 sequence (Q92918 1-346 limits assumed): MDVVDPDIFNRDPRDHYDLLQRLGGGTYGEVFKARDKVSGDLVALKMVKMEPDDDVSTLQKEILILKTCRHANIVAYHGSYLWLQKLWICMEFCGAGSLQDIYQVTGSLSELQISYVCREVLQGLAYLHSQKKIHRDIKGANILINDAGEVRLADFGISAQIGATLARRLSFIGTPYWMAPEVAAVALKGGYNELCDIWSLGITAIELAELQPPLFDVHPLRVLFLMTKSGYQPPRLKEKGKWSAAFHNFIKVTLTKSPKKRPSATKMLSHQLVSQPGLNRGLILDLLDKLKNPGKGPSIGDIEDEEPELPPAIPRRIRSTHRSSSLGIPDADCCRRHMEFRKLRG

[1] = Table C: Jurkat, 6 μM of tested compounds, stimulated vehicle = A
[2] = Table F: Jurkat, 1.0 μM of tested compounds
[3] = Table D: Jurkat, 6 μM of tested compounds, stimulated vehicle = B
[4] = Table B: Jurkat, 1.5 μM of tested compounds
[5] = Table E: Jurkat, 1.5 μM of tested compounds

IC50 (recombinant HPK1 protein) [nM]	Compound	IL-2, pg/mL stimulated (Jurkat cells; [4])	further results
< 50	CCOC(=O)c1cnc(Nc2ccc3c(c2)CCNC3=O)nc1N[C@H](CO)c1ccccc1 [Compound 45, Ethyl 4-{[(1S)-2-hydroxy-1-phenylethyl]amino}-2-[(1-oxo-1,2,3,4-tetrahydroisoquinolin-6-yl)amino]pyrimidine-5-carboxylate]		IL-2, pg/mL stimulated (Jurkat cells; [1]): B (50 pg/mL≤IL-2<100 pg/mL)
50 to 200	CCOC(=O)c1cnc(Nc2ccc(C(=O)N(C)C)cc2)nc1N[C@H](CO)c1ccccc1 [Compound 47, Ethyl 2-[4-(dimethylcarbamoyl)anilino]-4-[[(1S)-2-hydroxy-1-phenyl-ethyl]amino]pyrimidine-5-carboxylate]		IL-2, pg/mL stimulated (Jurkat cells; [1]): B (50 pg/mL≤IL-2<100 pg/mL)
50 to 200	CCOC(=O)CCCCCc1nnc(-c2cnc(Nc3ccc(S(C)(=O)=O)c(C)c3)nc2N[C@H](CO)c2ccccc2)o1 [Compound 561, Ethyl 6-[5-[4-[[(1S)-2-hydroxy-1-phenyl-ethyl]amino]-2-(3-methyl-4-methylsulfonyl-anilino)pyrimidin-5-yl]-1,3,4-oxadiazol-2-yl]hexanoate]		IL-2, pg/mL stimulated (Jurkat cells; [3]): B (50 pg/mL≤IL-2<100 pg/mL)
200 to 500	CCOC(=O)c1cnc(Nc2ccc(S(=O)(=O)C(C)C)cc2)nc1N[C@H](CO)c1ccccc1 [Compound 274, Ethyl 4-{[(1S)-2-hydroxy-1-phenylethyl]amino}-2-{[4-(propan-2-ylsulfonyl)phenyl]amino}pyrimidine-5-carboxylate]		IL-2, pg/mL stimulated (Jurkat cells; [1]): B (50 pg/mL≤IL-2<100 pg/mL)
< 50	CN(C)Cc1noc(-c2cnc(Nc3ccc4c(c3)CCCS4(=O)=O)nc2N[C@H](CO)c2ccccc2)n1 [Compound 583, (2S)-2-[[5-[3-[(dimethylamino)methyl]-1,2,4-oxadiazol-5-yl]-2-[(1,1-dioxo-3,4-dihydro-2H-thiochromen-6-yl)amino]pyrimidin-4-yl]amino]-2-phenyl-ethanol]		IL-2, pg/mL stimulated (Jurkat cells; [2]): B (50 pg/mL≤IL-2<100 pg/mL)
200 to 500	CCOC(=O)c1cnc(Nc2ccc(S(C)(=O)=O)c(F)c2)nc1N[C@H](CO)c1ccccc1 [Compound 210, Ethyl 2-{[3-fluoro-4-(methylsulfonyl)phenyl]amino}-4-{[(1S)-2-hydroxy-1-phenylethyl]amino}pyrimidine-5-carboxylate]	D (35.0 pg/mL≤IL-2)	
50 to 200	Cc1cc(Nc2ncc(C(=O)NC(C)C)c(N[C@H](CO)c3ccccc3)n2)ccc1S(C)(=O)=O [Compound 267, 4-{[(1S)-2-hydroxy-1-phenylethyl]amino}-2-{[3-methyl-4-(methylsulfonyl)phenyl]amino}-N-(propan-2-yl)pyrimidine-5-carboxamide]	D (35.0 pg/mL≤IL-2)	
200 to 500	CC(C)NC(=O)c1cnc(Nc2ccc(F)c(-c3ccccc3)c2)nc1N[C@H](CO)c1ccccc1 [Compound 293, 2-[(6-fluorobiphenyl-3-yl)amino]-4-{[(1S)-2-hydroxy-1-phenylethyl]-amino}-N-(propan-2-yl)pyrimidine-5-carboxamide]	D (35.0 pg/mL≤IL-2)	
50 to 200	CCOC(=O)c1cnc(Nc2ccc(C(=O)NC)c(Cl)c2)nc1N[C@H](CO)c1ccccc1 [Compound 560, Ethyl 2-[3-chloro-4-(methylcarbamoyl)anilino]-4-[[(1S)-2-hydroxy-1-phenyl-ethyl]amino]pyrimidine-5-carboxylate]		IL-2, pg/mL stimulated (Jurkat cells; [3]): D (150 pg/mL≤IL-2)
50 to 200	CN1CCc2cc(Nc3ncc(C(=O)NC4CCCC4)c(N[C@H](CO)c4ccccc4)n3)ccc2C1=O [Compound 389, N-cyclopentyl-4-{[(1S)-2-hydroxy-1-phenylethyl]amino}-2-[(2-methyl-1-oxo-1,2,3,4-tetrahydroisoquinolin-6-yl)amino]pyrimidine-5-carboxamide]	C (25.0 pg/mL≤IL-2<35.0 pg/mL)	
50 to 200	CCOC(=O)c1cnc(Nc2ccc3c(c2)CCN(CC)C3=O)nc1N[C@H](CO)c1ccccc1 [Compound 218, Ethyl 2-[(2-ethyl-1-oxo-3,4-dihydroisoquinolin-6-yl)amino]-4-[[(1S)-2-hydroxy-1-phenyl-ethyl]amino]pyrimidine-5-carboxylate]		IL-2, pg/mL stimulated (Jurkat cells; [1]): D (150 pg/mL≤IL-2)
200 to 500	CCOC(=O)c1cnc(Nc2ccc(C(=O)N(C)C)c(Cl)c2)nc1N[C@H](CO)c1ccccc1 [Compound 266, Ethyl 2-[3-chloro-4-(dimethylcarbamoyl)anilino]-4-[[(1S)-2-hydroxy-1-phenyl-ethyl]amino]pyrimidine-5-carboxylate]		IL-2, pg/mL stimulated (Jurkat cells; [1]): C (100 pg/mL≤IL-2<150 pg/mL)
< 50	CCOC(=O)c1cnc(Nc2ccc3c(c2)CCCS3(=O)=O)nc1N[C@H](CO)c1ccccc1 [Compound 573, ethyl 2-[(1,1-dioxo-3,4-dihydro-2H-thiochromen-6-yl)amino]-4-[[(1S)-2-hydroxy-1-phenyl-ethyl]amino]pyrimidine-5-carboxylate]		IL-2, pg/mL stimulated (Jurkat cells; [5]): C (100 pg/mL≤IL-2<150 pg/mL)
< 50	CCOC(=O)c1cnc(Nc2ccc(S(C)(=O)=O)cc2)nc1N[C@H](CO)c1ccccc1 [Compound 68, Ethyl 4-{[(1S)-2-hydroxy-1-phenylethyl]amino}-2-{[4-(methylsulfonyl)-phenyl]amino}pyrimidine-5-carboxylate]	D (35.0 pg/mL≤IL-2)	
200 to 500	Cc1cc(Nc2ncc(C(=O)NC3CCCC3)c(N[C@H](CO)c3ccccc3)n2)ccc1S(C)(=O)=O [Compound 434, N-cyclopentyl-4-{[(1S)-2-hydroxy-1-phenylethyl]amino}-2-{[3-methyl-4-(methylsulfonyl)phenyl]amino}pyrimidine-5-carboxamide]	B (5.0 pg/mL≤IL-2<25.0 pg/mL)	
50 to 200	CCOC(=O)c1cnc(Nc2ccc(C(N)=O)c(C)c2)nc1N[C@H](CO)c1ccccc1 [Compound 10, Ethyl 2-(4-carbamoyl-3-methyl-anilino)-4-[[(1S)-2-hydroxy-1-phenyl-ethyl]amino]pyrimidine-5-carboxylate]		IL-2, pg/mL stimulated (Jurkat cells; [3]): D (150 pg/mL≤IL-2)
< 50	CCOC(=O)c1cnc(Nc2ccc3c(c2)CCCNC3=O)nc1N[C@H](CO)c1ccccc1 [Compound 566, ethyl 4-[[(1S)-2-hydroxy-1-phenyl-ethyl]amino]-2-[(1-oxo-2,3,4,5-tetrahydro-2-benzazepin-7-yl)amino]pyrimidine-5-carboxylate]		IL-2, pg/mL stimulated (Jurkat cells; [5]): D (150 pg/mL≤IL-2)
< 50	CCOC(=O)c1cnc(Nc2ccc3c(c2)CCNC3=O)nc1N[C@H](CO)c1ccc(OC)cc1 [Compound 569, ethyl 4-[[(1S)-2-hydroxy-1-(4-methoxyphenyl)ethyl]amino]-2-[(1-oxo-3,4-dihydro-2H-isoquinolin-6-yl)amino]pyrimidine-5-carboxylate]	C (25.0 pg/mL≤IL-2<35.0 pg/mL)	
50 to 200	CNC(=O)c1cnc(Nc2ccc(S(C)(=O)=O)c(C)c2)nc1N[C@H](CO)c1ccccc1 [Compound 65, 4-{[(1S)-2-hydroxy-1-phenylethyl]amino}-N-methyl-2-{[3-methyl-4-(methylsulfonyl)phenyl]amino}pyrimidine-5-carboxamide]	D (35.0 pg/mL≤IL-2)	
< 50	O=C1NCc2cc(Nc3ncc(-c4nc(CN5CCCC5)no4)c(N[C@H](CO)c4ccccc4)n3)ccc21 [Compound 587, 5-[[4-[[(1S)-2-hydroxy-1-phenyl-ethyl]amino]-5-[3-(pyrrolidin-1-ylmethyl)-1,2,4-oxadiazol-5-yl]pyrimidin-2-yl]amino]isoindolin-1-one]		IL-2, pg/mL stimulated (Jurkat cells; Table G: Jurkat, 1.0 μM of tested compounds): D (150 pg/mL≤IL-2)
50 to 200	CCOC(=O)c1cnc(Nc2ccc(S(C)(=O)=O)c(OC)c2)nc1N[C@H](CO)c1ccccc1 [Compound 300, Ethyl 4-{[(1S)-2-hydroxy-1-phenylethyl]amino}-2-{[3-methoxy-4-(methylsulfonyl)phenyl]amino}pyrimidine-5-carboxylate]		IL-2, pg/mL stimulated (Jurkat cells; [1]): A (IL-2<50 pg/mL)
200 to 500	CCOC(=O)c1cnc(Nc2cccc(S(C)(=O)=O)c2)nc1N[C@H](CO)c1ccccc1 [Compound 69]		IL-2, pg/mL stimulated (Jurkat cells; [1]): B (50 pg/mL≤IL-2<100 pg/mL)
50 to 200	CS(=O)(=O)c1ccc(Nc2ncc(C(N)=O)c(N[C@H](CO)c3ccccc3)n2)cc1F [Compound 31, 2-{[3-fluoro-4-(methylsulfonyl)phenyl]amino}-4-{[(1S)-2-hydroxy-1-phenylethyl]amino}pyrimidine-5-carboxamide]	C (25.0 pg/mL≤IL-2<35.0 pg/mL)	

Compound	IC50 (recombinant HPK1 protein) [nM]	IL-2, pg/mL stimulated (Jurkat cells; [4])	further results
Cc1noc(-c2cnc(Nc3ccc4c(c3)CCN(COCC[Si](C)(C)C)C4=O)nc2N[C@H](CO)c2ccccc2)n1 [Compound 582, 6-[[4-[[(1S)-2-hydroxy-1-phenyl-ethyl]amino]-5-(3-methyl-1,2,4-oxadiazol-5-yl)pyrimidin-2-yl]amino]-2-(2-trimethylsilylethoxymethyl)-3,4-dihydroisoquinolin-1-one]	50 to 200		IL-2, pg/mL stimulated (Jurkat cells; [2]): B (50 pg/mL≤IL-2<100 pg/mL)
